Assay results taken from patent publication US20090005375A1, “ACETYL COENZYME A CARBOXYLASE INHIBITORS” (priority 2007, published 2009).

How the values were obtained:
[1] = target: T1, Human ACC1 (Homo sapiens, UniProt Q13085); assay: In vitro enzymatic ACC activity assay (malachite green), ACC1; type: biochemical; settings: recombinant His-tagged enzyme, absorbance at 620 nm
T1 construct: made in house; host or cells: SF-9 insect cells (baculovirus, pFAST-BacHTc)
Experimental: (§1) Provided in Example A is an in vitro enzymatic ACC activity assay for activity against ACC. The binding affinity of the test compound to ACC1 or ACC2 is determined by the changes in absorbance (at 620 nm); […]. It should be noted that a variety of other expression systems and hosts are also suitable for the expression of ACC, as would be readily appreciated by one of skill in the art.
Human ACC1 cDNA was amplified from human liver cDNA by polymerase chain reaction using primers; 5′[…]3′ (SEQ ID NO: 1) and 5′[…]3′ (SEQ ID NO: 2). The amplified DNA fragment was digested by restriction enzyme SalI and NotI, and cloned into pFAST-BacHTc (Invitrogen). This plasmid DNA was used for preparation of recombinant vaculovirus with BAC-TO-BAC Baculovirus Expression System (Invitrogen).
SF-9 cells were infected with the vaculovirus and cultured at 27° C. for 3 days. Harvested cells were homogenized in buffer A (25 mM HEPES (pH7.5), 130 mM NaCl, 1 mM EDTA, 25 mM sodium glycerophosphate, 1 mM sodium orthovanadate, 10% glycerol, complete protease inhibitor), and subjected to ultracentrifuge at 185700×g for 50 min at 4° C. ACC1 protein with 6×His-tag at the N-terminal was purified from the supernatant using Ni-NTA Super Flow Gel (QIAGEN). Eluted protein was dialysed against buffer B (50 mM HEPES (pH 7.5), 300 mM NaCl, 10 mM MgCl2, 10 mM tripotassium citrate, 2 mM dithiothreitol) and concentrated using Vivaspin20 ultrafiltration tube (Sartorius).
(§2) Malachite green solution was prepared by mixing 100 mL of solution A (0.12% malachite green in 5NH2SO4), 25 mL of solution B (7.5% ammonium molybdate) and 2 mL of solution C (11% TWEEN-20).
(§3) ACC1 was diluted to 8 μg/mL in reaction buffer (50 mM HEPES pH7.5, 10 mM MgCl2, 10 mM tripotassium citrate, 2 mM DTT, 0.75 mg/mL fatty acid free BSA) and 10 μL diluted enzyme solution was pored into each well of 384-well clear bottom plate. Test compound was diluted in the reaction buffer and 5 μL of the compound solution was added into each well, and the mixture was incubated at 30° C. for 60 minutes. Reaction was initiated by addition of 5 μL substrate solution (50 mM KHCO3, 200 μM ATP, 200 μM acetyl-CoA). After incubation at 30° C. for 20 minutes, reaction was terminated by addition of 5 μL malachite green solution and absorbance at 620 nm was measured.
(§4) Percent activity at each concentration of compound was calculated from the following equation: […]
(§5) Data were subjected to nonlinear regression analysis using GraphPad Prism Software (GraphPad Software Inc.) to obtain IC50 values.

[2] = target: T2, Human ACC2 (Homo sapiens, UniProt O00763); assay: In vitro enzymatic ACC activity assay (malachite green), ACC2; type: biochemical; settings: recombinant His-tagged enzyme, absorbance at 620 nm
T2 construct: made in house; host or cells: SF-9 insect cells (baculovirus, pFAST-BacHTa)
Experimental: as §1
Human ACC2 cDNA except coding region for mitochondria localization sequence was amplified from human skeletal muscle cDNA by polymerase chain reaction using primers; 5′[…]3′ (SEQ ID NO: 3) and 5′[…]3′ (SEQ ID NO: 4). The amplified DNA fragment was digested by SalI and AflII, and cloned into pFAST-BacHTa (Invitrogen). Preparation of recombinant vaculovirus, infection of the virus to SF-9 cells and purification of recombinant ACC2 protein with 6×His-tag at the N-terminal were performed in the same method as described above.
as §2, §3
ACC2 was diluted to 6.4 μg/mL in reaction buffer, and the activity was measured by the same method as described for ACC1.
as §4, §5

T2 sequence (O00763 117-2458 limits assumed): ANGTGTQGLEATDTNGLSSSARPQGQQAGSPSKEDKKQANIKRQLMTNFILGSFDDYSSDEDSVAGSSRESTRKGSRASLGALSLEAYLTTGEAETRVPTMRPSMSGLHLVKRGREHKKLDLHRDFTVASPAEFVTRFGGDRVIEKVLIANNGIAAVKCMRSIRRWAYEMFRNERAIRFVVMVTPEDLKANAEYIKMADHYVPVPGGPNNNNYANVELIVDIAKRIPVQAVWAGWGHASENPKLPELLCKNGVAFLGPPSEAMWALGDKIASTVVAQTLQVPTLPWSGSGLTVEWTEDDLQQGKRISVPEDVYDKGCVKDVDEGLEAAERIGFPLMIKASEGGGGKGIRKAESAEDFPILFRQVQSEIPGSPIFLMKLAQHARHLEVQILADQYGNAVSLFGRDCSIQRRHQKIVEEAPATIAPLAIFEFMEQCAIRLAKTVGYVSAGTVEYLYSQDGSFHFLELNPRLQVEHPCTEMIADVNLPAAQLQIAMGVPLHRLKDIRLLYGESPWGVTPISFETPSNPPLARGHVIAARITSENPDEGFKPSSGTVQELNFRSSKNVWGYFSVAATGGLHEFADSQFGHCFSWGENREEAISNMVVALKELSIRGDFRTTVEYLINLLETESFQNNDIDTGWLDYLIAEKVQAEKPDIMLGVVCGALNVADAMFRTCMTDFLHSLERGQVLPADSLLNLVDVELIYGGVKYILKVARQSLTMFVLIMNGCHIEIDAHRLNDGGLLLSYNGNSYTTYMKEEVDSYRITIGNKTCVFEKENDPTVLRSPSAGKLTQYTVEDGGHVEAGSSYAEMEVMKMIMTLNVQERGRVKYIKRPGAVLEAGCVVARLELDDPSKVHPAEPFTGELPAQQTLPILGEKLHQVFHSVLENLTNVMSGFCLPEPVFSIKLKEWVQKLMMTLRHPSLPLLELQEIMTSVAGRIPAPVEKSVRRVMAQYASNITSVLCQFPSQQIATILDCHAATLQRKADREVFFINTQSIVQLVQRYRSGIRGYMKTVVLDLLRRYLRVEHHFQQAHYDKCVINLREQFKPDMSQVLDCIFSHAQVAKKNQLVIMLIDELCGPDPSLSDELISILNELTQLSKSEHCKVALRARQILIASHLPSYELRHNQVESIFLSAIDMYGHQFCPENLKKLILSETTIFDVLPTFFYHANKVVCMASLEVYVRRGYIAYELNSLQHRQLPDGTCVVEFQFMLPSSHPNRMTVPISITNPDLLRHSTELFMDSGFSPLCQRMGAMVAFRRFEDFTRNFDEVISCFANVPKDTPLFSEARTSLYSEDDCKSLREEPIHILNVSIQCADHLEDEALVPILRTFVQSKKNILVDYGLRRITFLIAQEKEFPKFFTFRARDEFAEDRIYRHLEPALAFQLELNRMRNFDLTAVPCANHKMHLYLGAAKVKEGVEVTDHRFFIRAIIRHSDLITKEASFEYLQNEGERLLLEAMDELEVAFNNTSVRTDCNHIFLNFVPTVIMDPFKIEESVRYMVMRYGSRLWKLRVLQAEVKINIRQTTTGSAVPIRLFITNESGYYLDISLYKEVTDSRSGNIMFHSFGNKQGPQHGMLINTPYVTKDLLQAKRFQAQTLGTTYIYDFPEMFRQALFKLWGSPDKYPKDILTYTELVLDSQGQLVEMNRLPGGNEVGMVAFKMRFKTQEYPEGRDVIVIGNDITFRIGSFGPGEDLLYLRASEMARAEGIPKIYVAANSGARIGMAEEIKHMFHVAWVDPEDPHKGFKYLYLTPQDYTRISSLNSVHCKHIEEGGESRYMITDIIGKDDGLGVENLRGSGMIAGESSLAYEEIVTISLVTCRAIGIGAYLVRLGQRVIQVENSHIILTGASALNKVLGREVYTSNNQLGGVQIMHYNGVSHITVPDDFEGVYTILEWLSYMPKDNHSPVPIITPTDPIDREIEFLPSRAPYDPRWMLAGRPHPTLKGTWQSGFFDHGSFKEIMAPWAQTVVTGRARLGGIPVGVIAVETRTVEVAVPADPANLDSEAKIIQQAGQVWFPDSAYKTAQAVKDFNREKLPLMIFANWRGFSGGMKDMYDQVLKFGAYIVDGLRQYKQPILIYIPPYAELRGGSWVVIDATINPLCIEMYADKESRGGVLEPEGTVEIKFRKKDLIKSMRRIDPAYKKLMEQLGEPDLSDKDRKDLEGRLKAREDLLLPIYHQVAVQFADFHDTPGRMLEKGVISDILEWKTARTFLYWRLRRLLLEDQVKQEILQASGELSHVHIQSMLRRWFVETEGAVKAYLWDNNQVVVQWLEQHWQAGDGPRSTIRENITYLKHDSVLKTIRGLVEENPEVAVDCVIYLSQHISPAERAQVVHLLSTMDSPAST

IC50 [1] [µM] | IC50 [2] [µM] | Structure (SMILES)
> 50 | 5 to 50 | CCNC(=O)Nc1sc2ccccc2c1C(=O)N1CCC(Sc2cccc(OC(F)(F)F)c2)CC1 [Example 40, ethyl-3-(3-(4-(3-(trifluoromethoxy)phenylthio)piperidine-1-carbonyl)benzo[b]thiophen-2-yl)urea]
5 to 50 | 5 to 50 | CCNC(=O)Nc1sc2ccccc2c1C(=O)N1CCC([S+]([O-])c2cccc(OC)c2)CC1 (stereo not drawn) [Example 41, ethyl-3-(3-(4-(3-methoxyphenylsulfinyl)piperidine-1-carbonyl)benzo[b]thiophen-2-yl)urea]
> 50 | 5 to 50 | CCNC(=O)Nc1sc2ccccc2c1C(=O)N1CCC([S+]([O-])c2cccc(OC(F)(F)F)c2)CC1 (stereo not drawn) [Example 42, ethyl-3-(3-(4-(3-(trifluoromethoxy)phenylsulfinyl)piperidine-1-carbonyl)benzo[b]thiophen-2-yl)urea]
